{"source": "patent US6406680B1", "about": "“X-ray contrast agents” (Nycomed Imaging AS, priority 1999, dated 2002)", "key": {"[1]": {"test": "Aqueous solubility at 20° C.", "format": "physicochemical", "conditions": "water"}, "mice": {"test_system": "mice", "conditions": "cited from earlier work"}}}
{"smiles": "OCC(I)=CI", "note": "[Compound 2, 2,3-Diiodo-2-propene-1-ol]", "values": [{"measurement": "solubility", "setting": "[1]", "result": 3.91, "unit": "mg/mL"}, {"measurement": "solubility", "setting": "[1]; Table 1", "result": 0.391, "unit": "mg/mL"}]}
{"smiles": "OCC(I)=C(I)I", "note": "[Compound 3, 2,3,3-Triiodo-2-propene-1-ol]", "values": [{"measurement": "solubility", "setting": "[1]", "result": 0.198, "unit": "mg/mL"}, {"measurement": "solubility", "setting": "[1]; Table 1", "result": 0.198, "unit": "mg/mL"}]}
{"smiles": "OCC(O)COCC(I)=CI", "note": "(centres unmarked) [Compound 5, 3-(2,3-Diiodo-2-propenyloxy)-propane-1,2-diol]", "values": [{"measurement": "solubility", "setting": "[1]", "result": 18.4, "unit": "mg/mL"}, {"measurement": "solubility", "setting": "[1]; Table 1", "result": 18.4, "unit": "mg/mL"}]}
{"smiles": "OCC(O)COCC(I)=C(I)I", "note": "(centres unmarked) [Compound 6, 3-(2,3,3-Triiodo-2-propenyloxy)-propane-1,2-diol]", "values": [{"measurement": "solubility", "setting": "[1]", "result": 0.5, "unit": "mg/mL"}, {"measurement": "solubility", "setting": "[1]; Table 1", "result": 0.5, "unit": "mg/mL"}]}
{"smiles": "OCCOCC(I)=C(I)COCCO", "note": "[Compound 9, 2,2′-[2,3-Diiodo-2-butene-1,4-diylbis(oxy)]-bis-ethanol]", "values": [{"measurement": "solubility", "setting": "[1]", "result": 7.2, "unit": "mg/mL"}, {"measurement": "solubility", "setting": "[1]; Table 1", "result": 7.2, "unit": "mg/mL"}]}
{"smiles": "OCC(I)=C(I)CO", "note": "[Compound 12, 2,3-Diiodo-2-butene-1,4-diol]", "values": [{"measurement": "solubility", "setting": "[1]", "result": 0.534, "unit": "mg/mL"}, {"measurement": "solubility", "setting": "[1]; Table 1", "result": 0.534, "unit": "mg/mL"}]}
{"smiles": "OCC(I)=C(I)COCC(O)CO", "note": "(centres unmarked) [Compound 13, 3-[(2,3-Diiodo-4-hydroxy-2-butenyl)oxy]-propane-1,2-diol]", "values": [{"measurement": "solubility", "setting": "[1]", "result": "> 1.2", "unit": "mg/mL"}, {"measurement": "solubility", "setting": "[1]; Table 1", "result": "> 1200", "unit": "mg/mL"}]}
{"smiles": "OCC(O)COCC(I)=C(I)COCC(O)CO", "note": "(centres unmarked) [Compound 14, 3,3′-[2,3-Diiodo-2-butene-1,4-diylbis(oxy)]-bis-propane-1,2-diol]", "values": [{"measurement": "solubility", "setting": "[1]", "result": "> 1.2", "unit": "mg/mL"}, {"measurement": "solubility", "setting": "[1]; Table 1", "result": "> 1200", "unit": "mg/mL"}]}
{"smiles": "OCC(I)=C(I)C(I)=C(I)CO", "note": "[Compound 16, 2,3,4,5-Tetraiodo-2,4-hexadiene-1,6-diol]", "values": [{"measurement": "solubility", "setting": "[1]", "result": 0.183, "unit": "mg/mL"}, {"measurement": "solubility", "setting": "[1]; Table 1", "result": 0.183, "unit": "mg/mL"}]}
{"smiles": "CC(=O)N(CC(O)CO)c1c(I)c(C(=O)NCC(O)CO)c(I)c(C(=O)NCC(O)CO)c1I", "note": "(centres unmarked) [Iohexol, iohexol, reference compound]", "values": [{"measurement": "solubility", "setting": "[1]; Table 1", "result": "> 1200", "unit": "mg/mL"}, {"measurement": "toxicity (LD 50 in mice, intravenous)", "setting": "mice", "result": 33700, "unit": "mg/kg"}]}
